Columns and labels:
[1] = Stability analysis of Formula I (purity by HPLC on storage); assay type: physicochemical
Description: Several batches of Formula I produced by reacting benzophenoneimine with aminomethylpyridine in the absence of benzene were stored refrigerated and also at room temperature.

[2] = Stability analysis of anatabine base with and without BHT as a preservative; assay type: physicochemical
Experimental: See, for example, Tables 3 and 4 in Examples 4 and 5, respectively. Purity of the anatabine may be retained for extended periods of time. […] Further, anatabine remains stable when stored at a variety of temperatures. For example, the anatabine retains the indicated purity when stored at −20° C. to −10° C., −20° C. to 0° C., −10° C. to 0° C., 0° C. to 4° C., 2° C. to 8° C., 5° C. to 10° C., 10° C. to 15° C., 15° C. to 25° C., or 25° C. to 28° C. Stability is determined by any suitable art-recognized method. For example, anatabine stability may be monitored by high performance liquid chromatography (HPLC), liquid chromatography-mass spectroscopy (LC-MS), or nuclear magnetic resonance (NMR).
Anatabine base stability was analyzed with and without BHT (3,5-di-tert-butyl-4-hydroxytoluene). The initial purity of BHT-free anatabine base was 94.95%. The initial purity of anatabine base with BHT was 94.87%.

In the case of c1ccc(C(=NCc2cccnc2)c2ccccc2)cc1 [Formula I, benzylhydrylidene-pyridin-3-ylmethyl-amine], the “Purity (%) (stored at 2-8° C.)” value ([1]; day 1, 2-8° C.) is reported as 88.61%, the “Purity (%) (stored at 25-28° C.)” value ([1]; day 1, 25-28° C.) is reported as 88.93% and the “Purity (%) (stored at 2-8° C.)” value ([1]; day 2, 2-8° C.) is reported as 88.83%. For the same compound, the “Purity (%) (stored at 25-28° C.)” value ([1]; day 2, 25-28° C.) was 85.49%, the “Purity (%) (stored at 2-8° C.)” value ([1]; day 3, 2-8° C.) was 88.30% and the “Purity (%) (stored at 25-28° C.)” value ([1]; day 3, 25-28° C.) was 88.02%. For the same compound, the “Purity (%) (stored at 2-8° C.)” value ([1]; day 6, 2-8° C.) was 88.83%, the “Purity (%) (stored at 25-28° C.)” value ([1]; day 6, 25-28° C.) was 86.62% and the “Purity (%) (stored at 2-8° C.)” value ([1]; day 12, 2-8° C.) was 88.75%. For the same compound, the “Purity (%) (stored at 25-28° C.)” value ([1]; day 12, 25-28° C.) was 87.47%, the “Purity (%) (stored at 2-8° C.)” value ([1]; day 18, 2-8° C.) was 88.46% and the “Purity (%) (stored at 25-28° C.)” value ([1]; day 18, 25-28° C.) was 87.25%. The Purity on storage ([1]; refrigerated) was “constant” and the “Deviation of purity on storage” value ([1]; room temperature) was 1-2%.

In the case of C1=CCC(c2cccnc2)NC1 (stereo not shown) [anatabine base, anatabine], the Initial purity ([2]; BHT-free) is reported as 94.95%, the “Purity (%) (with BHT)” value ([2]; day 1, 2-8° C., with BHT) is reported as 93.26% and the “Purity (%) (without BHT)” value ([2]; day 1, 2-8° C.) is reported as 94.44%. The “Purity (%) (with BHT)” value ([2]; day 1, 25-28° C., with BHT) was 93.27%, the “Purity (%) (without BHT)” value ([2]; day 1, 25-28° C.) was 89.63% and the “Purity (%) (with BHT)” value ([2]; day 1, −20° C., with BHT) was 94.26%. For the same compound, the “Purity (%) (without BHT)” value ([2]; day 1, −20° C.) was 93.90%, the “Purity (%) (with BHT)” value ([2]; day 2, 2-8° C., with BHT) was 94.83% and the “Purity (%) (without BHT)” value ([2]; day 2, 2-8° C.) was 94.05%. For the same compound, the “Purity (%) (with BHT)” value ([2]; day 2, 25-28° C., with BHT) was 92.73%, the “Purity (%) (without BHT)” value ([2]; day 2, 25-28° C.) was 87.59% and the “Purity (%) (with BHT)” value ([2]; day 2, −20° C., with BHT) was 94.73%. The “Purity (%) (without BHT)” value ([2]; day 2, −20° C.) was 94.62%, the “Purity (%) (with BHT)” value ([2]; day 3, 2-8° C., with BHT) was 94.26% and the “Purity (%) (without BHT)” value ([2]; day 3, 2-8° C.) was 91.65%. For the same compound, the “Purity (%) (with BHT)” value ([2]; day 3, 25-28° C., with BHT) was 87.44%, the “Purity (%) (without BHT)” value ([2]; day 3, 25-28° C.) was 80.74% and the “Purity (%) (with BHT)” value ([2]; day 3, −20° C., with BHT) was 94.62%. The “Purity (%) (without BHT)” value ([2]; day 3, −20° C.) was 93.87%, the “Purity (%) (with BHT)” value ([2]; day 12, 2-8° C., with BHT) was 94.18% and the “Purity (%) (without BHT)” value ([2]; day 12, 2-8° C.) was 90.12%. For the same compound, the “Purity (%) (with BHT)” value ([2]; day 12, 25-28° C., with BHT) was 85.10%, the “Purity (%) (without BHT)” value ([2]; day 12, 25-28° C.) was 79.59% and the “Purity (%) (with BHT)” value ([2]; day 12, −20° C., with BHT) was 94.74%. The “Purity (%) (without BHT)” value ([2]; day 12, −20° C.) was 94.01% and the Initial purity ([2]; with BHT) was 94.87%.

Source: patent publication US8241680B2, “Nutraceutical product containing anatabine and yerba maté” (priority 2010, dated 2012)
